Reference: BindingDB's records for doi:10.1111/cbdd.12570 (University of Milano, 2015)
Counter-ions that a name gives are not always drawn.

Each compound was assayed against Putative heat shock protein HSP 90-alpha A4 (Homo sapiens, UniProt Q58FG1) (assay: Fluorescence Polarization (FP) Assay).
Description: The fluorescence polarization (FP) assay was performed as described in the reference (Bioorg Med Chem. 2010. 18:6031-6043).

Sequence of Putative heat shock protein HSP 90-alpha A4 (Q58FG1 whole entry): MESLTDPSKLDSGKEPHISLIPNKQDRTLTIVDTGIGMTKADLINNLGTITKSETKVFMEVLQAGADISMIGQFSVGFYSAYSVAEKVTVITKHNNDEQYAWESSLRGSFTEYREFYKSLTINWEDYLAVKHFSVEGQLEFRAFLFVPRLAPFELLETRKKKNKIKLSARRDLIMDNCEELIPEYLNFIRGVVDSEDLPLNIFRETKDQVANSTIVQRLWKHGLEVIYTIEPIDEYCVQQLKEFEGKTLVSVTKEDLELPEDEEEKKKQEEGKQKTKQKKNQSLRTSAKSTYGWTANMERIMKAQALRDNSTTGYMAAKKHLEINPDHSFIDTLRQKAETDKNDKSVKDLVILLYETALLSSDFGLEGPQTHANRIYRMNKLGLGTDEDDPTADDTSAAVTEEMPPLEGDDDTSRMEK

SMILES | IC50 [µM]
Oc1cc(O)c(-c2noc3c2CCCC3O)cc1Cl (configuration not stated) [3-(5-chloro-2,4-dihydroxyphenyl)-4,5,6,7-tetrahydro-benzo[d]isoxazol-7-ol (14)] | 26
NCCON=C1CCCc2c(-c3cc(Cl)c(O)cc3O)noc21 [3-(5-chloro-2,4-dihydroxyphenyl)-5,6-dihydro-4H-benzo[d]isoxazol-7-one O-(2-aminoethyl)-oxime hydrochloride (16)] | 6.3
ON=C1CCCc2c(-c3cc(Cl)c(O)cc3O)noc21 [3-(5-chloro-2,4-dihydroxyphenyl)-5,6-dihydro-4H-benzo[d]isoxazol-7-one oxime (15)] | 0.8
CN1CCc2c(-c3cc(Cl)c(O)cc3O)noc2C1=O [3-(5-chloro-2,4-dihydroxyphenyl)-5,6-dihydro-6-methylisoxazolo[5,4-c]pyridin-7(4H)-one (9a)] | 10
O=C1CCCc2c(-c3cc(Cl)c(O)cc3O)noc21 [3-(5-chloro-2,4-dihydroxyphenyl)-5,6-dihydrobenzo[d]isoxazol-7(4H)-one (13)] | 4.8
O=C1NCCc2c(-c3cc(Cl)c(O)cc3O)noc21 [3-(5-chloro-2,4-dihydroxyphenyl)-5,6-dihydroisoxazolo[5,4-c]pyridin-7(4H)-one (9b)] | 1.6
NCCON=C1CCCc2c(-c3ccc(C(N)=O)cc3)noc21 [4-(7-(2-Aminoethoxyimino)-4,5,6,7-tetrahydrobenzo[d]isoxazol-3-yl)-benzamide hydrochloride (21c)] | > 100
NC(=O)c1ccc(-c2noc3c2CCCC3=NOCCN2CCOCC2)cc1 [4-(7-(2-Morpholin-4-yl-ethoxyimino)-4,5,6,7-tetrahydrobenzo[d]isoxazol-3-yl)benzamide (21b)] | > 100
NC(=O)c1ccc(-c2noc3c2CCCC3O)cc1 (configuration not stated) [4-(7-Hydroxy-4,5,6,7-tetrahydro-benzo[d]isoxazol-3-yl)benzamide (22)] | > 100
NC(=O)c1ccc(-c2noc3c2CCCC3=NO)cc1 [4-(7-Hydroxyimino-4,5,6,7-tetrahydro-benzo[d]isoxazol-3-yl)benzamide (21a)] | > 100
NC(=O)c1ccc(-c2noc3c2CCCC3=O)cc1 [4-(7-Oxo-4,5,6,7-tetrahydrobenzo[d]isoxazol-3-yl)-benzamide (20)] | > 100
C=CCNC1=C2C[C@@H](C)C[C@H](OC)C[C@@H](C)/C=C/[C@H](OC(N)=O)[C@@H](OC)/C=C\C=C(/C)C(=O)NC(=CC1=O)C2=O [17-AAG] | 1.09
